According to patent publication US20150374709A1, “TETRA-SUBSTITUTED NDGA DERIVATIVES VIA ETHER BONDS AND CARBAMATE BONDS AND THEIR SYNTHESIS AND PHARMACEUTICAL USE” (ERIMOS PHARMACEUTICALS LLC, priority 2006, published 2015):

Tests used:
Assay type in all cases: cell-based
Prostate cell lines = assay: NCI DTP human tumor cell line screen, prostate panel; conditions: Prostate (2 cell lines)
From the text: (§1) The United States National Cancer Institute (NCI) provides a developmental therapeutics program (DTP) (http://dtp.nci.nih.gov/branches/btb/ivelsp.html) to screen submitted substances in support of cancer drug discovery. The In Vitro Cell Line Screening Project (IVCLSP) is a dedicated service providing direct support to the DTP anticancer drug discovery program and is designed to screen up to 3,000 compounds per year for potential anticancer activity. The operation of this screen utilizes 60 different human tumor cell lines, representing leukemia, melanoma and cancers of the lung, colon, brain, ovary, breast, prostate, and kidney. The aim is to prioritize for farther evaluation, synthetic compounds or natural product samples showing selective growth inhibition or cell killing of particular tumor cell lines. This screen is unique in that the complexity of a 60 cell line dose response produced by a given compound results in a biological response pattern which can be utilized in pattern recognition algorithms (COMPARE program. See: http://dtp.nci.nih.gov/docs/compare/compare.html). Using these algorithms, it is possible to assign a putative mechanism of action to a test compound, or to determine that the response pattern is unique and not similar to that of any of the standard prototype compounds included in the NCI database. […]

Colon Cancer cell lines = assay: NCI DTP human tumor cell line screen, colon cancer panel; conditions: Colon Cancer (7 cell lines)
From the text: as §1

Breast Cancer cell lines = assay: NCI DTP human tumor cell line screen, breast cancer panel; conditions: Breast Cancer (6 cell lines)
From the text: as §1

A549 (lung carcinoma) = assay: MTS cell viability assay, A549; conditions: Homo sapiens, A549; MTS assay; read-out: A549 IC50
From the text: Studies performed regarding cytotoxicity included the well-known MTS, Trypan Blue and MTT protocols. The MTS studies were done using the CellTiter 96®AQueous One Solution Cell Proliferation Assay (Promega Corporation, Madison, Wis. USA). Metabolically active, namely viable, cells turn MTS, a tetrazolium compound (3-(4,5-dimethylthiazol-2-yl)-5-(3-carboxymethoxyphenyl)-2-(4-sulfophenyl)-2H-tetrazolium, inner salt) into colored formazan, which is soluble in tissue culture medium. The measurement of the absorbance of the formazan is read at 490 nm. The ready to use reagent is added directly to the cells in media in 96-well plates, incubated 1-4 hours and the results are recorded by the plate reader. The IC50 is estimated by graphing the gathered data. The IC50 is the concentration of the tested material that inhibits 50% of growth or viability of the tested material compared to a control.
Three cell lines obtained from ATCC and maintained as directed by ATCC were tested: HeLa (cervical adenocarcinoma), A549 (lung carcinoma), and COS-7 (SV40 transformed monkey kidney). Studies of these cell lines are considered to be indicative of the effect of tested substances on mammalian, including human, diseases.
All compounds were dissolved in DMSO and DMSO is used as the placebo. The samples were first dissolved into 10 mM dilutions in DMSO and then diluted further to 5, 1, 0.5, 0.1, 0.05, and 0.01 mM solutions. These solutions were added to the media at a 1% concentration (1 μl to 100 μl media) to treat the cells with 100, 50, 10, 5, 1, 0.5, and 0.1 μM of the compound. […] Solutions were checked before use for precipitation, especially the 10 mM solutions. If there was precipitation, they were warmed 65° C. and added to warmed media.
Wells on a 96-well plate were seeded with 1.5-8×10^4 cells in 100 μl media and incubated overnight. The outside wells of the plate were filled with 200 μl sterile, deionized (DI) water to curb media evaporation. After 24 hours, test chemicals were prepared in media at a concentration of 1% media volume. The test sample media were added, mixing with pipette before adding 100 μl per well. Media was added to the “Media Only” wells. The well plate and its contents were incubated for 24-72 hours, depending on the study conducted. On the thy of the MTS assay, the MTS reagent was removed from the refrigerator and brought to room temperature. Using the multichannel pipette, 20 μl of the MTS reagent was added to each well and incubated for one to four hours. The plate was read at 490 nm with a reference wavelength of 690 nm after one hour in the incubator thereafter until the blank wells were at about 0.2 OD. The results were then scanned into a Microsoft® Excel® template designed to perform all necessary calculations whim data are entered. The data were checked for statistical errors; data points that are within 10% of the mean of the data points for that group were included. The average of the blanks (“Media Only”) were subtracted and the data were inserted into a chart that represents growth response, treated/untreated.

C[C@H](Cc1ccc(OCCCN2CCCCC2)c(OCCCN2CCCCC2)c1)[C@@H](C)Cc1ccc(OCCCN2CCCCC2)c(OCCCN2CCCCC2)c1 [Compound A, 1,4-bis{3,4-bis[3-(piperidin-1-yl)propoxy]phenyl}-2,3-dimethyl-(2R,3S)-butane]
Mean Growth Percent at 10 μM (Prostate cell lines): −95.47%
Mean Growth Percent at 10 μM (Colon Cancer cell lines): −94.08%
Mean Growth Percent at 10 μM (Breast Cancer cell lines): −67.95%
IC50 (A549 (lung carcinoma)): 0.8 to 0.9 µM
